Measurements as given in the supplement of paper PMC11451515.

Key:
Settings in all cases: 48 h
NOMO1 [1] = assay: cell viability relative to DMSO control; higher = less cytotoxic
Method in brief: (§1)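 In 1536-well plates, 5 μl of leukemia cells were seeded per well: 500 cells/well for NOMO1 or SEM and 1000 cells/well for P12-Ichikawa. Each line had first been adapted for at least four passages in each medium. Library compounds in DMSO were pin-dosed at 11 threefold concentrations between 47 μM and 0.79 nM, and CellTiter-Glo One luminescence was read after 48 h at 37°C. Viability is a per-plate percentage relative to DMSO wells, with cell-free wells as background.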

SEM cells [2] = assay: as above
Method in brief: as §1

P12-Ichikawa [3] = assay: as above
Method in brief: as §1

NOMO1 [4] = assay: AUC of viability dose-response curve (% viability x log10 dose units); higher = less sensitive
Method in brief: (§2)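 Viability of medium-adapted leukemia cells was measured by CellTiter-Glo One luminescence after 48 h at 37°C with library compounds in DMSO. Doses were 11 threefold steps from 47 μM to 0.79 nM, in 1536-well plates at 500 or 1000 cells/well. Signals were normalised per plate to DMSO and cell-free wells and fitted with a four-parameter log-logistic model on log10 dose. Area under the curve was integrated by trapezoidal rule, with curves exceeding full viability scaled and failed quality-control curves removed.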

SEM cells [5] = assay: as above
Method in brief: as §2

P12-Ichikawa [6] = assay: as above
Method in brief: as §2

O=C(O)C(=O)Nc1cccc(-c2nnn[nH]2)c1
cell viability [%]
Settings	NOMO1 [1]	P12-Ichikawa [3]	SEM cells [2]
HPLM + 10% dialyzed FBS, 0.000781 µM	96.8	101	90.2
HPLM + 10% dialyzed FBS, 0.00234 µM	117	94.9	98.2
HPLM + 10% dialyzed FBS, 0.00702 µM	117	103	108
HPLM + 10% dialyzed FBS, 0.0211 µM	119	108	112
HPLM + 10% dialyzed FBS, 0.0632 µM	114	108	109
HPLM + 10% dialyzed FBS, 0.19 µM	108	106	116
HPLM + 10% dialyzed FBS, 0.569 µM	130	105	76.4
HPLM + 10% dialyzed FBS, 1.71 µM	114	106	122
HPLM + 10% dialyzed FBS, 5.12 µM	123	112	132
HPLM + 10% dialyzed FBS, 15.4 µM	106	112	128
HPLM + 10% dialyzed FBS, 46.1 µM	116	111	119
RPMI 5 mM glucose + 10% FBS, 0.000781 µM	94.3	109	91.3
RPMI 5 mM glucose + 10% FBS, 0.00234 µM	102	111	112
RPMI 5 mM glucose + 10% FBS, 0.00702 µM	109	106	114
RPMI 5 mM glucose + 10% FBS, 0.0211 µM	95.8	112	104
RPMI 5 mM glucose + 10% FBS, 0.0632 µM	111	126	106
RPMI 5 mM glucose + 10% FBS, 0.19 µM	108	107	106
RPMI 5 mM glucose + 10% FBS, 0.569 µM	97.3	113	75.5
RPMI 5 mM glucose + 10% FBS, 1.71 µM	106	114	119
RPMI 5 mM glucose + 10% FBS, 5.12 µM	108	108	120
RPMI 5 mM glucose + 10% FBS, 15.4 µM	120	116	110
RPMI 5 mM glucose + 10% FBS, 46.1 µM	99.2	107	117
RPMI 5 mM glucose + 10% dialyzed FBS, 0.000781 µM	109	100	98.8
RPMI 5 mM glucose + 10% dialyzed FBS, 0.00234 µM	103	105	101
RPMI 5 mM glucose + 10% dialyzed FBS, 0.00702 µM	111	106	111
RPMI 5 mM glucose + 10% dialyzed FBS, 0.0211 µM	99.2	108	116
RPMI 5 mM glucose + 10% dialyzed FBS, 0.0632 µM	112	107	119
RPMI 5 mM glucose + 10% dialyzed FBS, 0.19 µM	106	106	105
RPMI 5 mM glucose + 10% dialyzed FBS, 0.569 µM	126	100	81.5
RPMI 5 mM glucose + 10% dialyzed FBS, 1.71 µM	104	105	119
RPMI 5 mM glucose + 10% dialyzed FBS, 5.12 µM	113	98.4	132
RPMI 5 mM glucose + 10% dialyzed FBS, 15.4 µM	113	105	107
RPMI 5 mM glucose + 10% dialyzed FBS, 46.1 µM	120	102	102

AUC of viability dose-response curve
Settings	NOMO1 [4]	P12-Ichikawa [6]	SEM cells [5]
HPLM + 10% dialyzed FBS	463	455	422
RPMI 5 mM glucose + 10% FBS	457	477	451
RPMI 5 mM glucose + 10% dialyzed FBS	452	470	462

CN(C)Cc1cccc(N/C(=C2\C(=O)Nc3cc(C(=O)N(C)C)ccc32)c2ccccc2)c1
cell viability [%]
Settings	NOMO1 [1]	P12-Ichikawa [3]	SEM cells [2]
HPLM + 10% dialyzed FBS, 0.000781 µM	99.3	95.7	75.8
HPLM + 10% dialyzed FBS, 0.00234 µM	105	105	88.4
HPLM + 10% dialyzed FBS, 0.00702 µM	112	110	100
HPLM + 10% dialyzed FBS, 0.0211 µM	112	101	98.6
HPLM + 10% dialyzed FBS, 0.0632 µM	91.1	119	112
HPLM + 10% dialyzed FBS, 0.19 µM	118	114	101
HPLM + 10% dialyzed FBS, 0.569 µM	110	111	108
HPLM + 10% dialyzed FBS, 1.71 µM	97.9	115	97.2
HPLM + 10% dialyzed FBS, 5.12 µM	74.8	103	90.7
HPLM + 10% dialyzed FBS, 15.4 µM	58.2	93.2	55
HPLM + 10% dialyzed FBS, 46.1 µM	28.8	42.3	2.72
RPMI 5 mM glucose + 10% FBS, 0.000781 µM	100	90.7	92.4
RPMI 5 mM glucose + 10% FBS, 0.00234 µM	105	114	87.5
RPMI 5 mM glucose + 10% FBS, 0.00702 µM	101	108	102
RPMI 5 mM glucose + 10% FBS, 0.0211 µM	105	109	104
RPMI 5 mM glucose + 10% FBS, 0.0632 µM	103	114	109
RPMI 5 mM glucose + 10% FBS, 0.19 µM	107	111	114
RPMI 5 mM glucose + 10% FBS, 0.569 µM	95.2	113	104
RPMI 5 mM glucose + 10% FBS, 1.71 µM	92.4	106	102
RPMI 5 mM glucose + 10% FBS, 5.12 µM	84.6	96	71.2
RPMI 5 mM glucose + 10% FBS, 15.4 µM	68.5	90.3	7.07
RPMI 5 mM glucose + 10% FBS, 46.1 µM	55	65	1.12
RPMI 5 mM glucose + 10% dialyzed FBS, 0.000781 µM	95.7	100	74.2
RPMI 5 mM glucose + 10% dialyzed FBS, 0.00234 µM	88.9	111	103
RPMI 5 mM glucose + 10% dialyzed FBS, 0.00702 µM	95.9	111	96.5
RPMI 5 mM glucose + 10% dialyzed FBS, 0.0211 µM	96.4	117	108
RPMI 5 mM glucose + 10% dialyzed FBS, 0.0632 µM	107	120	103
RPMI 5 mM glucose + 10% dialyzed FBS, 0.19 µM	99.6	111	110
RPMI 5 mM glucose + 10% dialyzed FBS, 0.569 µM	112	114	111
RPMI 5 mM glucose + 10% dialyzed FBS, 1.71 µM	112	118	115
RPMI 5 mM glucose + 10% dialyzed FBS, 5.12 µM	81.2	103	85.6
RPMI 5 mM glucose + 10% dialyzed FBS, 15.4 µM	73	98.2	26.6
RPMI 5 mM glucose + 10% dialyzed FBS, 46.1 µM	61.6	64.4	1.38

AUC of viability dose-response curve
Settings	NOMO1 [4]	P12-Ichikawa [6]	SEM cells [5]
HPLM + 10% dialyzed FBS	418	455	420
RPMI 5 mM glucose + 10% FBS	433	453	394
RPMI 5 mM glucose + 10% dialyzed FBS	444	458	411

c1cc(N[C@@H]2CCNC2)nc(-c2cnc3ccc(-c4cn[nH]c4)cn23)c1
cell viability [%]
Settings	NOMO1 [1]	P12-Ichikawa [3]	SEM cells [2]
HPLM + 10% dialyzed FBS, 0.000781 µM	133	116	105
HPLM + 10% dialyzed FBS, 0.00234 µM	119	121	109
HPLM + 10% dialyzed FBS, 0.00702 µM	124	122	136
HPLM + 10% dialyzed FBS, 0.0211 µM	137	123	134
HPLM + 10% dialyzed FBS, 0.0632 µM	134	131	106
HPLM + 10% dialyzed FBS, 0.19 µM	139	130	98.6
HPLM + 10% dialyzed FBS, 0.569 µM	127	135	81.5
HPLM + 10% dialyzed FBS, 1.71 µM	128	136	78.8
HPLM + 10% dialyzed FBS, 5.12 µM	132	132	74
HPLM + 10% dialyzed FBS, 15.4 µM	102	120	76.5
HPLM + 10% dialyzed FBS, 46.1 µM	91.9	104	67.2
RPMI 5 mM glucose + 10% FBS, 0.000781 µM	116	–	–
RPMI 5 mM glucose + 10% FBS, 0.00234 µM	126	–	–
RPMI 5 mM glucose + 10% FBS, 0.00702 µM	124	–	–
RPMI 5 mM glucose + 10% FBS, 0.0211 µM	133	–	–
RPMI 5 mM glucose + 10% FBS, 0.0632 µM	137	–	–
RPMI 5 mM glucose + 10% FBS, 0.19 µM	125	–	–
RPMI 5 mM glucose + 10% FBS, 0.569 µM	120	–	–
RPMI 5 mM glucose + 10% FBS, 1.71 µM	125	–	–
RPMI 5 mM glucose + 10% FBS, 5.12 µM	128	–	–
RPMI 5 mM glucose + 10% FBS, 15.4 µM	111	–	–
RPMI 5 mM glucose + 10% FBS, 46.1 µM	100	–	–

AUC of viability dose-response curve
Settings	NOMO1 [4]	P12-Ichikawa [6]	SEM cells [5]
HPLM + 10% dialyzed FBS	460	471	386
RPMI 5 mM glucose + 10% FBS	467	457	399
RPMI 5 mM glucose + 10% dialyzed FBS	436	437	367
